Literature values in patent US20030181371A1, “Compositions and methods of using collajolie” (Angiotech Pharmaceuticals, Inc., priority 2001, published 2003).

Tests used:
[1] = not given; remark: listed apart in the source

Compound | well tolerated daily dosage [mg] | further results
CN(C)c1ccc(O)c2c1C[C@H]1C[C@H]3[C@H](N(C)C)C(O)=C(C(N)=O)C(=O)[C@@]3(O)C(O)=C1C2=O [minocycline, 7-dimethylamino-6-dimethyl-6-deoxytetracycline] | 200 | –
CN(C)[C@@H]1C(O)=C(C(N)=O)C(=O)[C@@]2(O)C(O)=C3C(=O)c4c(O)cccc4[C@@](C)(O)C3C[C@@H]12 (stereo in doubt) [tetracycline, 4-(dimethylamino)-1,4,4a,5,5a,6,11,12a-octahydro-3,6,10,12,12a-pentahydroxy-6-methyl-1,11-dioxo-2-naphthacenecarboxamide] | 1000 | –
C[C@H]1c2cccc(O)c2C(=O)C2=C(O)[C@]3(O)C(=O)C(C(N)=O)=C(O)[C@@H](N(C)C)[C@@H]3[C@@H](O)[C@@H]21 [doxycycline, α-6-deoxy-5-hydroxy-tetracycline] | 100 | –
CNC(=O)[C@H](Cc1ccccc1)NC(=O)[C@H](CC(C)C)[C@H](CSc1cccs1)C(=O)NO [Batimistat] | – | solubility [1]: highly insoluble
CNC(=O)[C@@H](NC(=O)[C@H](CC(C)C)[C@H](O)C(=O)NO)C(C)(C)C [Marimistat] | – | established well tolerated single daily dose (single daily dose): 50 mg
